PMC4597882 (Investigational new drugs, 2009)

Target: human TopoII (TopoIIα) (Homo sapiens, UniProt P11388)
Assay: kinetoplast DNA decatenation assay
Assay type: biochemical

Chain of human TopoII (TopoIIα) (P11388 whole entry): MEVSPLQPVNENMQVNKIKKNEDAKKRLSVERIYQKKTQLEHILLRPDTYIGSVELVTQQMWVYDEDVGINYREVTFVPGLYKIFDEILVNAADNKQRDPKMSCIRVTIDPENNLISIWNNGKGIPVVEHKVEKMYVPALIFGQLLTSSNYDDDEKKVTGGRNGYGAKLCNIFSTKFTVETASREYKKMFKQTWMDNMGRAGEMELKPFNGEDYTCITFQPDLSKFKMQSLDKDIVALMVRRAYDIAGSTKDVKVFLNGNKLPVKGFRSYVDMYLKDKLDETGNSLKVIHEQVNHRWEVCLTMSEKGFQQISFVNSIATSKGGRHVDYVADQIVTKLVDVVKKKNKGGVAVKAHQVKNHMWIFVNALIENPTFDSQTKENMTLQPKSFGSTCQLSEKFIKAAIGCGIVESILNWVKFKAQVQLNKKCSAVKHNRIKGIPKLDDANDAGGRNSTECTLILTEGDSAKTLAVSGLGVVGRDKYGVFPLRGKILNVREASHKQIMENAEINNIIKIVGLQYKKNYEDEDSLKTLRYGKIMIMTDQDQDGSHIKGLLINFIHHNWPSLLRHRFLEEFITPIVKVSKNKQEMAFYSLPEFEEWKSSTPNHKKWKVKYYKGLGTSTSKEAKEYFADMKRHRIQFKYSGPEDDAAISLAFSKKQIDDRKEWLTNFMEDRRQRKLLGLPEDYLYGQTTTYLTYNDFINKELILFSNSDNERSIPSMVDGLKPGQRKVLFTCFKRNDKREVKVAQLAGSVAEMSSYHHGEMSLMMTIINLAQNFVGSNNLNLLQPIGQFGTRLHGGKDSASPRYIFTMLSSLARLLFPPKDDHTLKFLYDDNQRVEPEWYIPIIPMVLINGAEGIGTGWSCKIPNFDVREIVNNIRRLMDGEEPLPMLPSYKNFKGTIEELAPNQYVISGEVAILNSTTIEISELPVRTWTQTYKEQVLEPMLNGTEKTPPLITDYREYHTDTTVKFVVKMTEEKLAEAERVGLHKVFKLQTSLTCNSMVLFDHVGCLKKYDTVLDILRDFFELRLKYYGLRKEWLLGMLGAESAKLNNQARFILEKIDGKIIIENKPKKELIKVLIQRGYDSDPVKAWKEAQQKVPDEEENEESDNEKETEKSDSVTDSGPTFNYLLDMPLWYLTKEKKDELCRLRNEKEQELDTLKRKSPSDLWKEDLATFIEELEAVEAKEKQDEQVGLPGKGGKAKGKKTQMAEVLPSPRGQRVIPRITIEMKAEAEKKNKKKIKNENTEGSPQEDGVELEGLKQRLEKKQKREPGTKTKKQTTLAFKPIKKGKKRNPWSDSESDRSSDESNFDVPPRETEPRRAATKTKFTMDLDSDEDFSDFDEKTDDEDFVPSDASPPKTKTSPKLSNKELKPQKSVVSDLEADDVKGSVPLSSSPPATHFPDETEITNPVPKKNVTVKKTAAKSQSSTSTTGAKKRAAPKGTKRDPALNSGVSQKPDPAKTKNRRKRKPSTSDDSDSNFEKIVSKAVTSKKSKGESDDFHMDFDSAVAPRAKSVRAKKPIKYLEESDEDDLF

IC50: ~80 µM
Compound: CC(=O)O[C@@H]1[C@@H](C)O[C@@H](c2ccc3c(c2O)[C@@H](O)[C@]24O[C@@]2(C3=O)[C@@]2(O)C(=O)C=C(C)C[C@@]2(O)C[C@@H]4O)C[C@H]1OC(=O)/C=C/C=C/C=C/C=C/C(=O)Nc1c(O)c2ccc(O)c(Cl)c2oc1=O [SD8, Simocyclinone D8]
